Measurements taken from patent US8586611B2 (priority 2005, dated 2013).
Read-outs that look alike come from different tables or passages of the source.

Experiments:
Format in all cases: in vivo
[1] = tested on: Erysiphe graminis f. sp. tritici; test: Test E: wheat powdery mildew, spray the day before inoculation (disease rating, 100 = 100% disease control)
Text: (§1) The test compounds were first dissolved in acetone in an amount equal to 3% of the final volume and then suspended at the desired concentration (in ppm) in acetone and purified water (50/50 mix by volume) containing 250 ppm of the surfactant Trem® 014 (polyhydric alcohol esters). The resulting test suspensions were then used in tests A-E. Spraying a 200 ppm test suspension to the point of run-off on the test plants was the equivalent of a rate of 500 g/ha.
The test suspension was sprayed to the point of run-off on wheat seedlings. The following day the seedlings were inoculated with a spore dust of Erysiphe graminis f. sp. tritici, (the causal agent of wheat powdery mildew) and incubated in a growth chamber at 20° C. for 7 days, after which disease ratings were made.
(§2) Results for Tests A-F are given in Table A. In the table, a rating of 100 indicates 100% disease control and a rating of 0 indicates no disease control (relative to the controls). A dash (-) indicates no test results.

[2] = tested on: Phytophthora infestans; test: whole plant or invertebrate; conditions: for Test C disease rating (100 = 100% disease control, 0 = no disease control): tomato late blight
[3] = tested on: Plasmopara viticola; test: Test B: grape downy mildew, spray 24 h after inoculation (disease rating, 100 = 100% disease control)
Text: as §1
Grape seedlings were inoculated with a spore suspension of Plasmopara viticola (the causal agent of grape downy mildew) and incubated in a saturated atmosphere at 20° C. for 24 h. After a short drying period, the test suspension was sprayed to the point of run-off on the grape seedlings and then moved to a growth chamber at 20° C. for 5 days, after which the test units were placed back into a saturated atmosphere at 20° C. for 24 h. Upon removal, disease ratings were made.
as §2

[4] = tested on: Phytophthora infestans; test: whole plant or invertebrate; conditions: for Test D disease rating (100 = 100% disease control, 0 = no disease control): tomato late blight
[5] = spray the day before inoculation, compounds without asterisk (not 40 or 10 ppm)
[6] = spray 24 h after inoculation, compounds without asterisk (not 40 or 10 ppm)
[7] = spray 17 h after inoculation, compounds without asterisk (not 40 or 10 ppm)
[8] = sprayed the day before inoculation, 7 days at 20° C., unmarked compounds (no asterisk, not 40 or 10 ppm)
[9] = sprayed the day before inoculation, unmarked compounds (no asterisk, not 40 or 10 ppm)
[10] = sprayed 24 h after inoculation, unmarked compounds (no asterisk, not 40 or 10 ppm)
[11] = sprayed 17 h after inoculation, unmarked compounds (no asterisk, not 40 or 10 ppm)
[12] = sprayed the day before inoculation, tested at 10 ppm (**)
[13] = sprayed 24 h after inoculation, tested at 10 ppm (**)
[14] = sprayed 17 h after inoculation, tested at 10 ppm (**)

Row | Structure (SMILES) | Test E disease rating (100 = 100% disease control, 0 = no disease control) [1, 5] | Test C disease rating (100 = 100% disease control, 0 = no disease control) [2, 5] | Test B disease rating (100 = 100% disease control, 0 = no disease control) [3, 6] | Test C disease rating (100 = 100% disease control, 0 = no disease control) [2, 9] | Test B disease rating (100 = 100% disease control, 0 = no disease control) [3, 10] | Test D disease rating (100 = 100% disease control, 0 = no disease control) [4, 11] | other results
1 | Cc1cc(C(F)(F)F)nn1CC(=O)N1CCC(c2nc(C(=O)N(C)C3CCC(C)c4ccccc43)cs2)CC1 (mixture of isomers) [compound 192] | 0% | 100% | 97% |  |  |  | Test D disease rating (100 = 100% disease control, 0 = no disease control) [4, 7]: 99%
2 | Cc1cc(C(F)(F)F)nn1CC(=O)N1CCC(c2nc(C(=O)N(C)C3CCCC4CCCCC43)cs2)CC1 (mixture of isomers) [compound 254] |  |  |  | 99 | 95 | 99 | Test E disease rating (100 = 100% disease control, 0 = no disease control) [1, 8]: 0
3 | Cc1cc(C(F)(F)F)nn1CC(=O)N1CCC(c2nc(C(=O)N(C)[C@@H]3CC[C@@H](O)c4ccccc43)cs2)CC1 (racemic) [Compound 206, N-methyl-2-[1-[[5-methyl-3-(trifluoromethyl)-1H-pyrazol-1-yl]acetyl]-4-piperidinyl]-N-[(1R,4R)-1,2,3,4-tetrahydro-4-hydroxy-1-naphthalenyl]-4-thiazolecarboxamide] |  |  |  |  |  |  | pest or weed control at 40 ppm ([1]; Blumeria graminis, topical, 168 h, spray the day before inoculation, tested at 40 ppm, read-out: Test E disease rating (100 = 100% disease control, 0 = no disease control)): 0%; pest or weed control at 40 ppm ([2]; Phytophthora infestans, in Solanum lycopersicum, 144 h, read-out: Test C disease rating (100 = 100% disease control, 0 = no disease control)): 100%; pest or weed control at 40 ppm ([3]; Plasmopara viticola, 144 h, spray 24 h after inoculation, tested at 40 ppm, read-out: Test B disease rating (100 = 100% disease control, 0 = no disease control)): 99%; pest or weed control at 40 ppm ([4]; Phytophthora infestans, in Solanum lycopersicum, topical, 96 h, read-out: Test D disease rating (100 = 100% disease control, 0 = no disease control)): 99%
4 | Cc1ccc(C)c(CC(=O)N2CCC(c3nc(C(=O)N(C)C(C#N)c4ccccc4)cs3)CC2)c1 (stereo not drawn) [compound 102] | 0% | 99% | 100% |  |  |  | 
5 | C=CC(c1ccccc1)N(C)C(=O)c1csc(C2CCN(C(=O)Cc3cc(C)ccc3C)CC2)n1 (stereo not drawn) [compound 103] | 79% | 71% | 100% |  |  |  | 
6 | C=CCC(c1ccccc1)N(C)C(=O)c1csc(C2CCN(C(=O)Cc3cc(C)ccc3C)CC2)n1 (stereo not drawn) [compound 104] | 0% | 87% | 100% |  |  |  | 
7 | Cc1ccc(C)c(CC(=O)N2CCC(c3nc(C(=O)N(C)[C@H](C)c4cccc5ccccc45)cs3)CC2)c1 [compound 105] | 0% | 100% | 96% |  |  |  | 
8 | Cc1ccc(C)c(CC(=O)N2CCC(c3nc(C(=O)N(C)[C@H](C)c4ccc5ccccc5c4)cs3)CC2)c1 [compound 106] | 0% | 24% | 0% |  |  |  | 
9 | CC[C@H](c1ccccc1)N(C)C(=O)c1csc(C2CCN(C(=O)Cc3cccc(Br)c3)CC2)n1 [compound 107] | 0% | 100% | 99% |  |  |  | 
10 | CC[C@H](c1ccccc1)N(C)C(=O)c1csc(C2CCN(C(=O)Cc3cccc(C(F)(F)F)c3)CC2)n1 [compound 108] | 0% | 100% | 99% |  |  |  | 
11 | COCC(c1ccccc1)N(C)C(=O)c1csc(C2CCN(C(=O)Cc3cc(C)ccc3C)CC2)n1 (stereo not drawn) [compound 109] | 94% | 99% | 99% |  |  |  | 
12 | COc1ccc(CCN(C)C(=O)c2csc(C3CCN(C(=O)Cc4cc(C)ccc4C)CC3)n2)cc1OC [compound 171] | 0% |  | 0% |  |  |  | Test D disease rating (100 = 100% disease control, 0 = no disease control) [4, 7]: 24%
13 | Cc1cc(C(F)(F)F)nn1CC(=O)N1CCC(n2nnc(C(=O)N(C)[C@@H]3CCCc4ccccc43)n2)CC1 [compound 256] |  |  |  |  |  |  | Test C disease rating (100 = 100% disease control, 0 = no disease control) ([2]; sprayed the day before inoculation, tested at 40 ppm (*)): 100; Test B disease rating (100 = 100% disease control, 0 = no disease control) ([3]; sprayed 24 h after inoculation, tested at 40 ppm (*)): 99; Test D disease rating (100 = 100% disease control, 0 = no disease control) ([4]; sprayed 17 h after inoculation, tested at 40 ppm (*)): 86
14 | Cc1cc(Cl)nn1CC(=O)N1CCC(c2nc(C(=O)N(C)[C@@H]3CCCc4ccccc43)cs2)CC1 [compound 257] |  |  |  |  |  |  | Test C disease rating (100 = 100% disease control, 0 = no disease control) [2, 12]: 100; Test B disease rating (100 = 100% disease control, 0 = no disease control) [3, 13]: 99; Test D disease rating (100 = 100% disease control, 0 = no disease control) [4, 14]: 99
15 | Cc1cc(Br)nn1CC(=O)N1CCC(c2nc(C(=O)N(C)[C@@H]3CCCc4ccccc43)cs2)CC1 [compound 258] |  |  |  |  |  |  | Test C disease rating (100 = 100% disease control, 0 = no disease control) [2, 12]: 100; Test B disease rating (100 = 100% disease control, 0 = no disease control) [3, 13]: 100; Test D disease rating (100 = 100% disease control, 0 = no disease control) [4, 14]: 99
16 | C[C@H](NC(=O)c1csc(C2CCN(C(=O)Cc3ccccc3Cl)CC2)n1)c1ccccc1 [compound 260] |  |  |  | 0 | 14 |  | Test E disease rating (100 = 100% disease control, 0 = no disease control) [1, 8]: 0
17 | Cc1cc(C(F)(F)F)nn1CC(=O)N1CCC(c2nc(C(=O)N[C@H](C)c3ccccc3)cs2)CC1 [compound 301] |  |  |  | 99 | 99 | 80 | 
18 | CCN(C(=O)c1csc(C2CCN(C(=O)Cn3nc(C(F)(F)F)cc3C)CC2)n1)[C@H](C)c1ccccc1 [compound 302] |  |  |  | 95 | 86 | 26 | 
19 | CCCN(C(=O)c1csc(C2CCN(C(=O)Cn3nc(C(F)(F)F)cc3C)CC2)n1)[C@H](C)c1ccccc1 [compound 303] |  |  |  | 95 | 45 | 26 | 
20 | C=CCN(C(=O)c1csc(C2CCN(C(=O)Cn3nc(C(F)(F)F)cc3C)CC2)n1)[C@H](C)c1ccccc1 [compound 304] |  |  |  | 57 | 72 | 26 | 
21 | Cc1cc(C(F)(F)F)nn1CC(=O)N1CCC(c2nc(C(=O)N[C@@H]3CCCc4ccccc43)cs2)CC1 [compound 305] |  |  |  | 100 | 100 | 99 | 
22 | CCN(C(=O)c1csc(C2CCN(C(=O)Cn3nc(C(F)(F)F)cc3C)CC2)n1)[C@@H]1CCCc2ccccc21 [compound 306] |  |  |  | 100 | 96 | 83 | 
